In PubChem BioAssay AID1963440 (Molecular Pharmacology Branch, DTP, NCI, 2024):

Test system: NCI-H1417 complex spheroids, growth % test/control
Experiment: Anticancer human tumor NCI-H1417 cell line growth inhibition [Asc];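 further: spheroids exposed to compounds for 7 days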;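 on viability, T/C: 100% = DMSO vehicle control wells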
Conditions: for IC50: curve of first compound; for viability, T/C: stronger effect = lower value
Experimental: Multicellular complex tumor spheroid response to apoptosis pathway targeting inhibitors Alrizomadlin, Pelcitoclax, and Dasminapant in combination with a variety of drugs and investigational agents in selected tumor cell lines
The MDM2 inhibitor alrizomadlin, the Bcl-2/Bcl-xL inhibitor pelcitoclax, and the IAPs inhibitor dasminapant were evaluated both individually and in combination with standard of care and investigational anticancer small molecules within a complex spheroid model of solid tumors. . Complex spheroids include a stromal component modeled by human endothelial cells (HUVEC) and fibroblasts modeled by human mesenchymal stem cells (MSCs). The concentration ranges selected for each drug and investigational agent were based upon clinically achievable concentrations if the clinical Cmax of the agent was known.
Compounds. The drugs and investigational agents: alrizomadlin (APG-115; NSC831270), pelcitoclax (APG-1252; NSC835773), dasminapant (APG-1387;NSC834197), TAK-243 (NSC785004), copanlisib (NSC809693), olaparib (NSC753686), talazoparib (NSC767125), cobimetinib (NSC 768068), eltanexor (KPT-8602, NSC 794443), abemaciclib (NSC 768073), sotorasib (NSC818433), adagrasib (NSC 831453), MRTX-1133 (NSC 836407), Iadademestat (ORY1001, NSC 806812), and RMC-4630 (NSC839698), were obtained from the NCI Developmental Therapeutics Program Chemical Repository. The FDA-approved anticancer drug set is available from the Developmental Therapeutics Program at https://dtp.cancer.gov/organization/dscb/obtaining/available plates.htm. […] The stock solutions were prepared in dimethyl sulfoxide (DMSO, Sigma-Aldrich, St. Louis, MO, cat. D2650) at 800-fold the tested concentration and stored at -70 degrees C prior to their use. All drugs and investigational agents were tested over a range starting from a high concentration at or near the clinical Cmax and decreasing in half-log increments. If the clinical Cmax for an agent had not been determined, the highest concentration tested was 10 microM.
The patient-derived cancer (PDC) cell lines include five colon adenocarcinomas: 186277-243-T-J2-PDC, 616215-338-R-J1-PDC, 439559-082-T-J2-PDC, 463943-066-T-J2-PDC, and 519858-162-T-J1-PDC; three pancreatic carcinomas: 323965-272-R-J2-PDC, 521955-158-R6-J3-PDC, and 521955-158-R2-J5-PDC; two uterine sarcomas: 327498-152-R-J2-PDC and 993429-296-R-J1-PDC; two rhabdomyosarcomas: 755483-174-R-J1-PDC and 772245-204-R-J1-PDC; two soft tissue sarcomas: 126254-015-R-J1-PDC and 494315-158-R-J1-PDC; two malignant fibrous histiocytomas: 317291-083-R-J1-PDC and 596521-263-R-J1-PDC; two breast carcinomas: 171881-019-R-J1-PDC and 885512-296-R-J2-PDC; and one ovarian carcinoma: 6556581-035-R-J-PDC were obtained from the NCI PDMR, (https://pdmr.cancer.gov). The established cell lines HSSY-2 synovial sarcoma (RRID:CVCL 8719), SYO-1 synovial sarcoma (RRID:CVCL_7146), MPNST malignant peripheral neural sheath tumor were obtained from the Sloan Kettering Institute. The following established cell lines were purchased from the American Type Culture Collection (ATCC, Manassas, VA), Sor the received from the NCI repository:, PANC-1 pancreatic carcinoma (CRL-1469, RRID:CVCL_0480), OVCAR-5 ovarian carcinoma (RRID:CVCL_1628), OVCAR-8 ovarian carcinoma (RRID:CVCL_1629), , MCF-7 breast carcinoma (CRL-12584, RRID:CVCL_0031), MDA-MB-231 breast carcinoma (CRL-12532, RRID:CVCL_0062), NCI-H1876 small cell lung carcinoma (CRL-5902, RRID:CVCL_1503), NCI-H510A small cell lung carcinoma (HTB-184, RRID:CVCL_1565), NCI-H1417 (CRL-5869, RRID:CVCL_1469), and NCI-H196 small cell lung carcinoma (CRL-5823, RRID:CVCL_1509). Dr. Peter Houghton (Greehey Children's Cancer Research Institute, University of Texas Health Science Center, San Antonio, TX) provided Rh-18 rhabdomyosarcoma (RRID:CVCL_1659). Pooled donor human umbilical vein endothelial cells (HUVEC, Lonza, cat. CC-2519) and human mesenchymal stem cells (hMSC, Lonza, cat. PT-2501) were purchased from Lonza (Walkersville, MD).
Cell Culture. […]

[1] = second compound 0.1 µM, first compound 0.0316 µM
[2] = second compound 0.1 µM, first compound 0.1 µM
[3] = second compound 0.1 µM, first compound 0.316 µM
[4] = second compound 0.1 µM, first compound 1 µM
[5] = second compound 0.316 µM, first compound 0.0316 µM
[6] = second compound 0.316 µM, first compound 0.1 µM
[7] = second compound 0.316 µM, first compound 0.316 µM
[8] = second compound 0.316 µM, first compound 1 µM
[9] = second compound 1 µM, first compound 0.0316 µM
[10] = second compound 1 µM, first compound 0.1 µM
[11] = second compound 1 µM, first compound 0.316 µM
[12] = second compound 1 µM, first compound 1 µM

With `O=C(c1cc(Cc2n[nH]c(=O)c3ccccc23)ccc1F)N1CCN(C(=O)C2CC2)CC1` + Cc1c(S(C)(=O)=O)c(-c2cc(F)cc(N3CCN(c4ccc(NS(=O)(=O)c5ccc(NC(CCN6CCC(C(=O)OCCCP(=O)(O)O)CC6)CSc6ccccc6)c(S(=O)(=O)C(F)(F)F)c5)cc4)CC3)c2)c(-c2ccc(Cl)cc2)n1C(C)C the IC50 (second compound 0.1 µM) was 1110 nM, the IC50 (second compound 0.316 µM) was < 31.6 nM and the IC50 (second compound 1 µM) was < 31.6 nM. For the same molecule, the IC50 (second compound 3.16 µM) was < 31.6 nM, the IC50 (second compound 10 µM) was < 31.6 nM and the viability, T/C [1] was 78.7%. For the same molecule, the viability, T/C [2] was 78.5%, the viability, T/C [3] was 69.3% and the viability, T/C [4] was 52.8%. The viability, T/C (second compound 0.1 µM, first compound 3.16 µM) was 25.5%, the viability, T/C (second compound 0.1 µM, first compound 10 µM) was 5.06% and the viability, T/C [5] was 44.5%. It also gave a viability, T/C [6] of 37%, a viability, T/C [7] of 35.1% and a viability, T/C [8] of 23.2%. For the same molecule, the viability, T/C (second compound 0.316 µM, first compound 3.16 µM) was 7.41%, the viability, T/C (second compound 0.316 µM, first compound 10 µM) was 3.61% and the viability, T/C [9] was 10.6%. For the same molecule, the viability, T/C [10] was 14.2%, the viability, T/C [11] was 8.49% and the viability, T/C [12] was 5.49%. For the same molecule, the viability, T/C (second compound 1 µM, first compound 3.16 µM) was 2.71%, the viability, T/C (second compound 1 µM, first compound 10 µM) was 3.64% and the viability, T/C (second compound 3.16 µM, first compound 0.0316 µM) was 2.9%. For the same molecule, the viability, T/C (second compound 3.16 µM, first compound 0.1 µM) was 2.62%, the viability, T/C (second compound 3.16 µM, first compound 0.316 µM) was 2.54% and the viability, T/C (second compound 3.16 µM, first compound 1 µM) was 2.33%. For the same molecule, the viability, T/C (second compound 3.16 µM, first compound 3.16 µM) was 2.43%, the viability, T/C (second compound 3.16 µM, first compound 10 µM) was 2.96% and the viability, T/C (second compound 10 µM, first compound 0.0316 µM) was 2.71%. The viability, T/C (second compound 10 µM, first compound 0.1 µM) was 2.63%, the viability, T/C (second compound 10 µM, first compound 0.316 µM) was 2.54% and the viability, T/C (second compound 10 µM, first compound 1 µM) was 1.96%. For the same molecule, the viability, T/C (second compound 10 µM, first compound 3.16 µM) was 2.66% and the viability, T/C (second compound 10 µM, first compound 10 µM) was 3.21%.

In the case of `O=C(c1ccc(F)c(F)c1Nc1ccc(I)cc1F)N1CC(O)([C@@H]2CCCCN2)C1` + CNC(C)C(=O)NC1CN(S(=O)(=O)c2cccc(S(=O)(=O)N3CCC4CCC(C(=O)NC(c5ccccc5)c5ccccc5)N4C(=O)C(NC(=O)C(C)NC)C3)c2)CCC2CCC(C(=O)NC(c3ccccc3)c3ccccc3)N2C1=O, the IC50 (second compound 0.01 µM) is reported as > 1000 nM, the IC50 (second compound 0.0316 µM) is reported as > 1000 nM and the IC50 (second compound 0.1 µM) is reported as > 1000 nM. For the same molecule, the IC50 (second compound 0.316 µM) was > 1000 nM, the IC50 (second compound 1 µM) was > 1000 nM and the viability, T/C (second compound 0.01 µM, first compound 0.00316 µM) was 107%. For the same molecule, the viability, T/C (second compound 0.01 µM, first compound 0.01 µM) was 102%, the viability, T/C (second compound 0.01 µM, first compound 0.0316 µM) was 95% and the viability, T/C (second compound 0.01 µM, first compound 0.1 µM) was 103%. The viability, T/C (second compound 0.01 µM, first compound 0.316 µM) was 99.5%, the viability, T/C (second compound 0.01 µM, first compound 1 µM) was 85.3% and the viability, T/C (second compound 0.0316 µM, first compound 0.00316 µM) was 107%. The viability, T/C (second compound 0.0316 µM, first compound 0.01 µM) was 96.6%, the viability, T/C (second compound 0.0316 µM, first compound 0.0316 µM) was 92.7% and the viability, T/C (second compound 0.0316 µM, first compound 0.1 µM) was 102%. The viability, T/C (second compound 0.0316 µM, first compound 0.316 µM) was 96.7%, the viability, T/C (second compound 0.0316 µM, first compound 1 µM) was 103% and the viability, T/C (second compound 0.1 µM, first compound 0.00316 µM) was 101%. For the same molecule, the viability, T/C (second compound 0.1 µM, first compound 0.01 µM) was 90.8%, the viability, T/C [1] was 95.3% and the viability, T/C [2] was 98.4%. It also gave a viability, T/C [3] of 99.4%, a viability, T/C [4] of 91.2% and a viability, T/C (second compound 0.316 µM, first compound 0.00316 µM) of 88.6%. The viability, T/C (second compound 0.316 µM, first compound 0.01 µM) was 104%, the viability, T/C [5] was 110% and the viability, T/C [6] was 90.9%. For the same molecule, the viability, T/C [7] was 105%, the viability, T/C [8] was 101% and the viability, T/C (second compound 1 µM, first compound 0.00316 µM) was 88%. The viability, T/C (second compound 1 µM, first compound 0.01 µM) was 93.8%, the viability, T/C [9] was 82.8% and the viability, T/C [10] was 95.8%. The viability, T/C [11] was 91.4% and the viability, T/C [12] was 102%.
